Patent publication US20020103084A1, “Soybean derived pesticide” (priority 2000, published 2002)

Test system: Persia mites
Experiment: Spray on avocado trees infested with Persia mites
Format: in vivo
Details: Example 14, diluted 200 times water
Description: Soybean extract and soybean slurry prepared as described above are used in the following examples. Many of the following examples involve spraying solutions onto leaves. The amount sprayed in the subsequent examples is quantified as spraying an amount sufficient to totally wet the plant or leaf surface.
The prepared concentrated insecticide is then diluted with 100 times water and thereafter sprayed onto avocado trees infested with Persia mites. A control sample using water was also tested. The results are as follows:
The effectiveness of soybean extract (Sample I) sprayed upon avocado leaves infested with Persia mites is evaluated. Sample I is diluted at both 100 times and 500 times water and thereafter sprayed onto avocado trees infested with Persia mites. A control sample using water was also tested. The results are as follows:
The same samples used in Example 5 are also used in testing effectiveness for control of mites. The samples are diluted with 100 times water and sprayed onto avocado trees infested with Persia mites. Two controls were used: the first, pure water; and, the second, clove oil diluted 100 times with water. The test results are as the following:
The same samples used in Example 7 are also used in testing the control of mites. The samples are diluted with 100 times water and sprayed onto avocado trees infested with Persia mites. The test results are as the following: […]

O=C/C=C/c1ccccc1 [Cinnamic Aldehyde, cinnamic aldehyde]
Mortality (%) (6 days after spray): 57.3% | No. Mites 6 Days After Spray (average number of mites per leaf, avocado trees): 10.8
